# According to patent US8952024B2, “Herbicidal pyrimidone derivatives” (E I du Pont de Nemours and Company, priority 2009, dated 2015):
# Assays:
# Test in all cases: Test B pre-/postemergence plant response
# Type in all cases: in vivo
# [1] = test system: Surinam grass (Brachiaria decumbens); details: for Surinam Grass plant response rating (0 to 100 scale): 62 g ai/ha, 0 is no effect, 13 to 15 days
# Method in brief: (§1)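 Plants treated either at seeding (loam/sand soil) or postemergence at 2 to 18 cm height, using a surfactant-containing non-phytotoxic solvent formulation. Evaluation was visual after 13 to 15 days, 0 to 100 scale relative to controls.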
# [2] = test system: Italian ryegrass (Lolium multiflorum); details: for Ryegrass, Italian plant response rating (0 to 100 scale): 62 g ai/ha, 0 is no effect, 13 to 15 days
# Method in brief: as §1
# [3] = test system: ragweed (common ragweed, Ambrosia elatior); details: for Ragweed plant response rating (0 to 100 scale): 62 g ai/ha, 0 is no effect, 13 to 15 days
# Method in brief: as §1
# [4] = test system: yellow nutsedge (Cyperus esculentus); details: for Nutsedge, Yellow plant response rating (0 to 100 scale): 62 g ai/ha, 0 is no effect, 13 to 15 days
# Method in brief: as §1
# [5] = test system: pigweed (Amaranthus retroflexus); details: for Pigweed plant response rating (0 to 100 scale): 62 g ai/ha, 0 is no effect, 13 to 15 days
# Method in brief: as §1
# [6] = test system: green foxtail (Setaria viridis); details: for Foxtail, Green plant response rating (0 to 100 scale): 62 g ai/ha, 0 is no effect, 13 to 15 days
# Method in brief: as §1
# [7] = test system: lambsquarters (Chenopodium album); details: for Lambsquarters plant response rating (0 to 100 scale): 62 g ai/ha, 0 is no effect, 13 to 15 days
# Method in brief: as §1
# [8] = test system: woolly cupgrass (Eriochloa villosa); details: for Cupgrass, Woolly plant response rating (0 to 100 scale): 62 g ai/ha, 0 is no effect, 13 to 15 days
# Method in brief: as §1
# [9] = test system: velvetleaf (Abutilon theophrasti); details: for Velvetleaf plant response rating (0 to 100 scale): 62 g ai/ha, 0 is no effect, 13 to 15 days
# Method in brief: as §1
# [10] = test system: large crabgrass (Digitaria sanguinalis); details: for Crabgrass, Large plant response rating (0 to 100 scale): 62 g ai/ha, 0 is no effect, 13 to 15 days
# Method in brief: as §1
# [11] = test system: downy bromegrass (Bromus tectorum); details: for Bromegrass, Downy plant response rating (0 to 100 scale): 62 g ai/ha, 0 is no effect, 13 to 15 days
# Method in brief: as §1
# [12] = test system: wheat (Triticum aestivum); details: for Wheat plant response rating (0 to 100 scale): 62 g ai/ha, 0 is no effect, 13 to 15 days
# Method in brief: as §1
# [13] = test system: goosegrass (Eleusine indica); details: for Goosegrass plant response rating (0 to 100 scale): 62 g ai/ha, 0 is no effect, 13 to 15 days
# Method in brief: as §1
# [14] = 31 g ai/ha, postemergence, scale 0 to 100, 0 is no effect, 100 is complete control
# [15] = postemergence, 100 is complete control
# [16] = Postemergence, 250 g ai/ha, scale 0 to 100 (0 no effect, 100 complete control)
# [17] = Postemergence, 125 g ai/ha, visual rating after 13 to 15 days, scale 0 (no effect) to 100 (complete control)
compound,measurement,setting,value
CC(C)CC(=O)OC1=C(C(=O)c2cnc(-c3ccccc3)n(-c3ccccc3)c2=O)C(=O)CCC1 [Compound 83],"Plant response rating, Surinam Grass",[1]; [14],75
same,Surinam Grass plant response rating (0 to 100 scale),[1]; [15],75
same,"Plant response rating, Surinam Grass",[1]; [16],90
same,"Plant response rating, Ryegrass, Italian",[2]; [14],0
same,"Ryegrass, Italian plant response rating (0 to 100 scale)",[2]; [15],0
same,"Plant response rating, Ryegrass, Italian",[2]; [16],5
same,"Plant response rating, Ragweed",[3]; [14],75
same,Ragweed plant response rating (0 to 100 scale),[3]; [15],80
same,"Plant response rating, Ragweed",[3]; [16],98
same,"Plant response rating, Nutsedge, Yellow",[4]; [14],10
same,"Nutsedge, Yellow plant response rating (0 to 100 scale)",[4]; [15],20
same,"Plant response rating, Nutsedge, Yellow",[4]; [16],85
same,"Plant response rating, Pigweed",[5]; [14],80
same,Pigweed plant response rating (0 to 100 scale),[5]; [15],90
same,"Plant response rating, Pigweed",[5]; [16],100
same,"Plant response rating, Foxtail, Green",[6]; [14],90
same,"Foxtail, Green plant response rating (0 to 100 scale)",[6]; [15],95
same,"Plant response rating, Foxtail, Green",[6]; [16],98
same,"Plant response rating, Lambsquarters",[7]; [14],95
same,Lambsquarters plant response rating (0 to 100 scale),[7]; [15],98
same,"Plant response rating, Lambsquarters",[7]; [16],100
same,"Plant response rating, Cupgrass, Woolly",[8]; [14],70
same,"Cupgrass, Woolly plant response rating (0 to 100 scale)",[8]; [15],85
same,"Plant response rating, Cupgrass, Woolly",[8]; [17],90
same,"Plant response rating, Cupgrass, Woolly",[8]; [16],95
same,"Plant response rating, Velvetleaf",[9]; [14],85
same,Velvetleaf plant response rating (0 to 100 scale),[9]; [15],90
same,"Plant response rating, Velvetleaf",[9]; [16],100
same,"Plant response rating, Crabgrass, Large",[10]; [14],85
same,"Crabgrass, Large plant response rating (0 to 100 scale)",[10]; [15],85
same,"Plant response rating, Crabgrass, Large",[10]; [17],95
same,"Plant response rating, Crabgrass, Large",[10]; [16],98
same,"Plant response rating, Bromegrass, Downy",[11]; [14],40
same,"Bromegrass, Downy plant response rating (0 to 100 scale)",[11]; [15],45
same,"Plant response rating, Bromegrass, Downy",[11]; [17],45
same,"Plant response rating, Bromegrass, Downy",[11]; [16],60
same,"Plant response rating, Wheat",[12]; [14],0
same,Wheat plant response rating (0 to 100 scale),[12]; [15],0
same,"Plant response rating, Wheat",[12]; [16],0
same,"Plant response rating, Goosegrass",[13]; [14],75
same,Goosegrass plant response rating (0 to 100 scale),[13]; [15],80
same,"Plant response rating, Goosegrass",[13]; [16],95
COCCn1c(-c2ccccc2)ncc(C(=O)C2=C(O)CCCC2=O)c1=O [Compound 85],"Plant response rating, Surinam Grass",[1]; [14],75
same,Surinam Grass plant response rating (0 to 100 scale),[1]; [15],85
same,"Plant response rating, Surinam Grass",[1]; [16],85
same,"Plant response rating, Ryegrass, Italian",[2]; [14],0
same,"Ryegrass, Italian plant response rating (0 to 100 scale)",[2]; [15],10
same,"Plant response rating, Ryegrass, Italian",[2]; [16],45
same,"Plant response rating, Ragweed",[3]; [14],80
same,Ragweed plant response rating (0 to 100 scale),[3]; [15],85
same,"Plant response rating, Ragweed",[3]; [16],98
same,"Plant response rating, Nutsedge, Yellow",[4]; [14],75
same,"Nutsedge, Yellow plant response rating (0 to 100 scale)",[4]; [15],85
same,"Plant response rating, Nutsedge, Yellow",[4]; [16],85
same,"Plant response rating, Pigweed",[5]; [14],100
same,Pigweed plant response rating (0 to 100 scale),[5]; [15],100
same,"Plant response rating, Pigweed",[5]; [16],100
same,"Plant response rating, Foxtail, Green",[6]; [14],80
same,"Foxtail, Green plant response rating (0 to 100 scale)",[6]; [15],95
same,"Plant response rating, Foxtail, Green",[6]; [16],98
same,"Plant response rating, Lambsquarters",[7]; [14],98
same,Lambsquarters plant response rating (0 to 100 scale),[7]; [15],98
same,"Plant response rating, Lambsquarters",[7]; [16],100
same,"Plant response rating, Cupgrass, Woolly",[8]; [14],75
same,"Cupgrass, Woolly plant response rating (0 to 100 scale)",[8]; [15],85
same,"Plant response rating, Cupgrass, Woolly",[8]; [17],90
same,"Plant response rating, Cupgrass, Woolly",[8]; [16],90
same,"Plant response rating, Velvetleaf",[9]; [14],90
same,Velvetleaf plant response rating (0 to 100 scale),[9]; [15],98
same,"Plant response rating, Velvetleaf",[9]; [16],98
same,"Plant response rating, Crabgrass, Large",[10]; [14],90
same,"Crabgrass, Large plant response rating (0 to 100 scale)",[10]; [15],90
same,"Plant response rating, Crabgrass, Large",[10]; [17],90
same,"Plant response rating, Crabgrass, Large",[10]; [16],95
same,"Plant response rating, Bromegrass, Downy",[11]; [14],0
same,"Bromegrass, Downy plant response rating (0 to 100 scale)",[11]; [15],5
same,"Plant response rating, Bromegrass, Downy",[11]; [17],25
same,"Plant response rating, Bromegrass, Downy",[11]; [16],30
same,"Plant response rating, Wheat",[12]; [14],0
same,Wheat plant response rating (0 to 100 scale),[12]; [15],5
same,"Plant response rating, Wheat",[12]; [16],35
same,"Plant response rating, Goosegrass",[13]; [14],70
same,Goosegrass plant response rating (0 to 100 scale),[13]; [15],70
same,"Plant response rating, Goosegrass",[13]; [16],85
